Experimental data from patent US20100240746A1, “STEREOISOMERS OF TRICYCLODECAN-9-YL-XANTHOGENATE” (LUMAVITA AG, priority 2007, published 2010).
Values after ≈ are worked out from the molar mass of the structure shown. Like-named read-outs stand apart in the source and are kept apart here.

What was measured:
[1] = tested on: HPV-31 specific RNA in HPV-31-infected CIN612 9E keratinocytes; assay: Short-term study, inhibition of HPV-31 specific RNA expression (Northern Blot); type: cell-based, human papilloma virus; settings: Human papillomavirus, Keratinocyte; 72 hrs, 37° C.
Description: The inhibitory activities of optically active (−)-enantiomer 1A against human papilloma virus were evaluated using HPV-31-infected CIN612 9E keratinocytes (Meyers et al., Science 1992, 257, 971-973).
Effect on HPV-31 specific DNA and RNA. HPV-31 infected cells (3×10^6) were dispensed into 14.5 cm dishes containing fresh E culture medium and 1×10^6 mitomycin C-treated J2 3T3 fibroblast feeders. After 6 hrs, fresh medium containing 0.85 g/L NaHCO3 and a test compound at a series of concentrations (0, 0.5, 1, 2, 4, 8, 16, and 32 μg/mL) were added. All samples were tested in duplicates at each concentration. After incubation at 37° C. for 72 hrs, the feeder cells were removed with 4 mM EDTA, and DNA and RNA was then isolated. The isolated DNA and RNA were analyzed in Southern and Northern Blot gels for HPV-31 specific sequences. Human A431 epithelial cancer cells were used as HPV-uninfected negative control. X-ray films were scanned and optical densities of HPV-31 specific DNA and major mRNA species were integrated.
Dose response curves were established by plotting integrated values against the concentrations of the test compound.

[2] = tested on: A431 cells (epithelial cancer cells); assay: Long-term study, growth of HPV-uninfected control A431 cells over 9 passages; type: cell-based, human
Description: (§1) HPV-31 infected cells (3×10^6) were dispensed into 14.5 cm dishes containing fresh E medium and 1×10^6 cells of mitomycin C-treated 3T3 fibroblast feeders. The dishes were incubated in a CO2 incubator under 5% CO2 at 37° C. in 100% humidity. Human A431 epithelial cancer cells were used as HPV-uninfected negative controls. After 6 hr incubation, the cell culture medium was removed and fresh E medium containing 0.85 g/L NaHCO3 and a test compound at concentrations of 10 and 3.3 μg/mL, or control (interferon γ at 200 IU/mL) were added. For each concentration, 4 dishes were prepared. The dishes were incubated at 37° C. in a CO2 incubator. The culture medium was replaced to new E medium containing each concentration of the test compound or control in every 72 hrs. After seven days, or when untreated cells became confluent, one dish of each group was harvested for DNA/RNA extraction, followed by Southern/Northern Blot analysis; and one dish was trypsinized, cell number were determined and cells were seeded in three new dishes, treated and cultured as described above. This procedure was repeated for 9 passages. During these passages, morphology of cells and cell density were monitored.
Effect on cell proliferation. Cell numbers in the dishes harvested were determined in a Neubauer hematocytometer. The multiplication factor was determined at every step of passage. The cell number of each culture at the end of the passage was divided by the number of seeded cells at the start of each passage. The end point was reached when keratinocytes treated with a test compound stopped growing. Stop of cell growth was defined as a multiplication factor of no greater than 1.

[3] = tested on: bovine papilloma virus type I (BPV-1)-transformed HEF (HEF-BPV); assay: Inhibition of bovine papilloma virus, BPV-infected hamster embryo fibroblasts (HEF) cell proliferation assay; type: cell-based; settings: HEF-BPV, 72 hr, 37° C., pH 6.8
Description: Briefly, hamster embryo fibroblasts and bovine papilloma virus type I (BPV-1)-transformed HEF (HEF-BPV) were grown in Eagle's basal medium. […] and HEF cells were seeded in 96-well plates at a density of 0.5×10^6 cells per plate in DMEM cell culture medium containing 10% fetal calf serum at pH 6.8. The plates were then incubated in the presence of 5% CO2 in 100% humidity at 37° C. After 6 hr, the cell culture medium in the plates was exchanged with fresh DMEM cell culture medium containing test compounds at a series of concentrations. The plates were incubated at 37° C. for additional 72 hr. Cells in the plates were then washed with PBS, fixed with 3% formaldehyde solution containing 0.9% NaCl for 1 min, washed by water for 10 sec, and dried overnight. For detection, the plates were stained with crystal violet solution for 5 min at room temperature, washed 5 times with water, and dried at room temperature overnight. After adding ethanol/acetic acid (99:1, v/v, […]) to each well, the plates were measured at 595 nm using an ELISA reader.

[4] = tested on: HPV-31 specific DNA in HPV-31-infected CIN612 9E keratinocytes; assay: Long-term study, HPV-31 specific DNA (Southern Blot); type: cell-based, human papilloma virus
Description: as §1
Effect on HPV-31 specific DNA and RNA: DNA and RNA were analyzed in Southern and Northern Blot gels for HPV-31 specific sequences. X-ray films were scanned and optical densities of HPV-31 specific DNA and major mRNA species were integrated. Time curves were established by plotting integrated values against number of passages for each treatment dose. The T50 (time required to reduce the level to 50% of control) was determined from the time curves from crossing points of time curves with a line parallel to the x-axis corresponding to 50% of integrals of untreated control sample.

With `S=C(S)OC1CC2CC1C1CCCC21` (single isomer, unassigned; (-)) [(−)-Enantiomer 1A, (−)-O-exo/C-exo-tricyclo[5.2.1.0^2,6]-dec-9-yl-xanthic acid] the IC50 [1] was 10.7 µg/mL (≈ 46.9 µM), the cell growth ([2]; 3.3 μg/mL) was “slight inhibition of cell growth” and the cell growth ([2]; 10 μg/mL) was “slight inhibition of cell growth”. For the same compound, the cell growth ([2]; overall) was “only minor effects on cell growth”, the IC50 [3] was 11.07 ± 0.18 µg/mL (≈ 48.5 µM) and the “T50 DNA” value ([4]; 3.3 μg/mL) was 2.23 passages. The “HPV-31 specific DNA content” value ([4]; 3.3 μg/mL or 10 μg/mL) was “continuous reductions”, the “T50 DNA” value ([4]; 10 μg/mL, listed as (−)-enantiomer 1A) was under 1 passages and the “T50 DNA” value ([4]; 10 μg/mL, listed as Cmpd 1A) was under 1 passages. It also gave an activity at 10 µg/mL ([4]; Human papillomavirus, Keratinocyte, 10 μg/mL, after 6 passages, read-out: number of viral genomes per cell, reduced to) of under 5%, an activity at 10 µg/mL ([4]; Human papillomavirus, Keratinocyte, 10 μg/mL, after 9 passages, read-out: viral DNA remaining) of under 1% and an inhibition at 10 µg/mL ([4]; Human papillomavirus, Keratinocyte, 10 μg/mL, after a single passage, read-out: reduction of number of viral genomes per cell) of over 50%.
